Experimental data published in ChEMBL document CHEMBL3046898, “Synthesis and characterization of flurbiprofen hydrazide derivatives as potential anti-HCV, anticancer and antimicrobial agents” (2013).
Active and inactive are the calls of the source. The rule behind the calls is not given here.

Columns and labels:
Proteus vulgaris = assay: Antibacterial activity against Proteus vulgaris at 6.25 to 200 ug/ml after 24 hrs by microwell dilution method; assay type: functional, organism-based
HOP-92 = assay: Cytotoxicity against human HOP92 assessed as cell growth at 10 uM after 48 hrs by SRB assay; assay type: functional; conditions: HOP-92, 48 h, read-out: Activity
HCT-15 = assay: Cytotoxicity against human HCT15 assessed as cell growth at 10 uM after 48 hrs by SRB assay; assay type: functional; conditions: HCT-15, 48 h, read-out: Activity
CAKI-1 = assay: Cytotoxicity against human Caki1 assessed as cell growth at 10 uM after 48 hrs by SRB assay; assay type: functional; conditions: CAKI-1, 48 h, read-out: Activity
HT-29 = assay: Cytotoxicity against human HT-29 assessed as cell growth at 10 uM after 48 hrs by SRB assay; assay type: functional; conditions: HT-29, 48 h, read-out: Activity
Hepacivirus hominis = assay: Inhibition of HCV N-terminal His-tagged NS5B RNA dependent RNA polymerase expressed in Escherichia coli DH5alpha using poly rA/U12 as primer at 200 uM after 60 mins by liquid scintillation counting

For CC(C(=O)NN1C(=O)CSC1c1ccc(C(F)(F)F)cc1)c1ccc(-c2ccccc2)c(F)c1 (stereo unspecified), the Activity (Proteus vulgaris) was “inactive”, the growth at 10 µM (HOP-92) was 59.9% and the growth at 10 µM (HCT-15) was 69.5%. The growth at 10 µM (CAKI-1) was 33.6%, the growth at 10 µM (HT-29) was 55.1% and the inhibition (Hepacivirus hominis) was 8%.
